Read-outs that look alike come from different tables or passages of the source.
Experiments:
[1] = tested on: SK-N-FI; test: cells; format: cell-based, human; settings: Homo sapiens, SK-N-FI, 72 h
Method: The drug-resistant cell lines were continuously cultured in the presence of the selecting agent, AD, DX, VBL or VM to maintain the drug resistant phenotypes. […] All cells were cultured in RPMI 1640-10% FBS at 37° C. 5% CO2 (see below).
The cytotoxicity of the drug toward the monolayer cell cultures (such as DC-3F, MCF-7, SK-N-As and sublines) was determined in 96-well microtiter plates by the SRB method as described by Skehan and co-workers (Skehan, P., et al., J. Natl. Cancer Inst. 1990, 82, 1107-1112) for measuring the cellular protein content. Cultures were fixed with trichloroacetic acid and then stained for 30 min with 0.4% suforhodamine B dissolved in 1% acetic acid. Unbound dye was removed by acetic acid washes, and the protein-bound dye was extracted with an unbuffered Tris base (tris(hydroxy-methyl)aminomethane) for determination of absorbance at 570 nm in a 96-well microtiter plate reader. The experiments were carried out in duplicate. Each run entailed six to seven concentrations of the tested drugs. Data were analyzed with the median-effect plot (Chou, T.-C. & Talalay, P. T. (1984) Adv. Enzyme Regul. 22, 27-55) using a previously described computer program (Chou, J., & Chou T.-C. 1987, Dose-effect analysis with microcomputers: Quantitation of ED50, synergism, antagonism, low-dose risk, reception-ligand binding and enzyme kinetics, IBM-PC software and manual, Biosoft, Cambridge, U.K.).

[2] = tested on: CCRF-CEM/VM1; test: cells; format: cell-based, human; settings: Homo sapiens, CCRF-CEM
Summary of the method: (§1)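 Duplicate 72 h cultures at 5×10^4 cells/mL, 37 °C, 5% CO2; then XTT plus PMS for 4 h; dual-wavelength read at 450/630 nm. Resistant sublines held under their selecting agents.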

[3] = tested on: Human CCRF-CEM Xenograft; test: CCRF-CEM xenograft in scid mice; format: in vivo, CB-17 scid mice
[4] = tested on: CCRF-CEM human T-cell acute lymphoblastic leukemia cell line; test: XTT cytotoxicity (cell growth inhibition), CCRF-CEM; settings: Homo sapiens, CCRF-CEM
Summary of the method: as §1

[5] = tested on: PC-3 Human Prostate Carcinoma; test: PC-3 xenograft; format: in vivo, nude mice; settings: for Average Body Weight, Day 5: initial weight
[6] = tested on: A549 Human Lung Carcinoma; test: A549 xenograft; format: in vivo, nude mice; settings: for Average Tumor Size, Day 11: control 96; for Average Tumor Size, Day 13: control 128; for Average Tumor Size, Day 15: control 306; for Average Tumor Size, Day 17: control 553; for Average Body Weight, Day 7: initial weight
[7] = dose 2.0 i.p. QD d7-10,14,15, day 12
[8] = dose 2.0 i.p. QD d7-10,14,15, day 17
[9] = dose 2.0 i.p. QD d7-10,14,15, day 22
[10] = dose 4.0 i.p. QD d7-10,14,15, day 12
[11] = dose 4.0 i.p. QD d7-10,14,15, day 17
[12] = dose 4.0 i.p. QD d7-10,14,15, day 22
[13] = 6 hr i.v. infusion: dEpoB 40, Taxol 24 mg/kg
[14] = PC-3 Prostate, dEpoB 40 mg/kg Q2D x 3, Taxol 15 mg/kg Q2D x 3
[15] = dEpoB 30 mg/kg 18 hr i.v. infusion, Taxol 16 mg/kg 6 hr infusion, VBL 2 and VP-16 25 mg/kg i.v. inj
[16] = A549 Lung, dEpoB 40 mg/kg Q2D x 3, Taxol 15 mg/kg Q2D x 3
[17] = Q2D x 3, 6 hr i.v. infusion: dEpoB 40, Taxol 24 mg/kg
[18] = Q2D x 3: dEpoB 30 mg/kg 18 hr i.v. infusion, Taxol 15 mg/kg 6 hr infusion, VBL 2 and VP-16 25 mg/kg i.v. inj

CC(=O)O[C@H]1C(=O)[C@@]2(C)[C@H]([C@H](OC(=O)c3ccccc3)[C@]3(O)C[C@H](OC(=O)[C@H](O)[C@@H](NC(=O)c4ccccc4)c4ccccc4)C(C)=C1C3(C)C)[C@]1(OC(C)=O)CO[C@@H]1C[C@@H]2O [Taxol ®, paclitaxel]
IC50 [1]: 130 nM | IC50 ([2]; 72 h, Table 1A, XTT): 6.6 nM | IC50 ([2]; Table 1, XTT): 2 nM | IC50 ([2]; Table 2, CCR-CEM/VM-1): 3 nM | IC50 ([2]; Table 2A, Topo II gene mutated cell line): 3 nM | IC50 ([2]; Table 5, single determinations): 6.6 nM | Average weight change ([3]; dose 2.0 i.p. QD d7-10,14,15, day 7): −0.1 | Average tumor volume (control = 1.00) [3, 7]: 0.39 | Average weight change [3, 7]: −1.1 | Average tumor volume (control = 1.00) [3, 8]: 0.29 | Average weight change [3, 8]: −1.5 | Average tumor volume (control = 1.00) [3, 9]: 0.28 | Average weight change [3, 9]: −0.3 | Average weight change ([3]; dose 4.0 i.p. QD d7-10,14,15, day 7): −0.2 | Average tumor volume (control = 1.00) [3, 10]: 0.37 | Average weight change [3, 10]: −1.7 | Average tumor volume (control = 1.00) [3, 11]: 0.23 | Average weight change [3, 11]: −1.9 | Average tumor volume (control = 1.00) [3, 12]: 0.19 | Average weight change [3, 12]: −0.3 | IC50 [4]: 2.1 nM | IC50 ([4]; 72 h, Table 1A, XTT): 2.1 nM | IC50 ([4]; Table 1, XTT): 2 nM | IC50 ([4]; Table 2): 2.3 nM | IC50 ([4]; Table 5, single determinations): 2.1 nM | IC50 ([4]; read-out: IC50 (A), Table 2A, parent cell line): 2.3 nM | Average Body Weight (change), Day 9 [5, 13]: -2.2 g | Average Body Weight (change), Day 11 [5, 13]: -2.8 g | Average Body Weight (change), Day 13 [5, 13]: -0.8 g | Average Tumor Size (TC), Day 9 [5, 13]: 0.18 TC | Average Tumor Size (TC), Day 11 [5, 13]: 0.05 TC | Average Tumor Size (TC), Day 13 [5, 13]: 0.06 TC | Tumor Disappearance [5, 13]: 2/4 | Lowest Average Tumor Size (T/C) [5, 14]: 0.02 T/C | Tumor Disappearance [5, 14]: 0 | Average Body Weight (change), Day 9 [5, 15]: -1.1 g | Average Body Weight (change), Day 11 [5, 15]: -0.9 g | Average Body Weight (change), Day 13 [5, 15]: +0.4 g | Average Tumor Size (TC), Day 9 [5, 15]: 0.34 TC | Average Tumor Size (TC), Day 11 [5, 15]: 0.09 TC | Average Tumor Size (TC), Day 13 [5, 15]: 0.02 TC | Tumor Disappearance [5, 15]: 0/4 | Average Body Weight, Day 5 [5, 13]: 28.8 g | Average Body Weight, Day 5 [5, 15]: 26.6 g | Lowest Average Tumor Size (T/C) [6, 16]: 0.01 T/C | Tumor Disappearance [6, 16]: 2/4 | Average Body Weight (change), Day 11 [6, 17]: -2.1 g | Average Body Weight (change), Day 13 [6, 17]: -2.7 g | Average Body Weight (change), Day 15 [6, 17]: -0.9 g | Tumor Disappearance [6, 17]: 4/4 | Average Tumor Size, Day 11 [6, 17]: 14 mm^3 | Average Tumor Size, Day 13 [6, 17]: 8 mm^3 | Average Tumor Size, Day 15 [6, 17]: 0 mm^3 | Average Tumor Size, Day 17 [6, 17]: 0 mm^3 | Average Body Weight (change), Day 11 [6, 18]: -1.2 g | Average Body Weight (change), Day 13 [6, 18]: -0.8 g | Average Body Weight (change), Day 15 [6, 18]: +0.5 g | Tumor Disappearance [6, 18]: 2/4 | Average Tumor Size, Day 11 [6, 18]: 49 mm^3 | Average Tumor Size, Day 13 [6, 18]: 32 mm^3 | Average Tumor Size, Day 15 [6, 18]: 7 mm^3 | Average Tumor Size, Day 17 [6, 18]: 6 mm^3 | Average Body Weight, Day 7 [6, 17]: 28.5 g | Average Body Weight, Day 7 [6, 18]: 27.6 g

From patent US6603023B2 (priority 1996, dated 2003)
